Assay results published in US20110015221A1, “PHARMACEUTICAL COMPOSITION OF VINFLUNINE WHICH IS INTENDED FOR PARENTERAL ADMINISTRATION PREPARATION METHOD THEREOF AND USE OF SAME” (PIERRE FABRE MEDICAMENT, priority 2003, published 2011).
≈ marks a conversion by molar mass, not a printed value.

Columns and labels:
[1] = Stability at 25° C.: total amount of vinflunine-related impurities, pulverulent form vs aqueous solution; assay type: physicochemical
Excerpt: The stability is monitored by observing the changes in the total amount of vinflunine-related impurities present.

Solubility = conditions: water

With CC[C@]12C=CCN3CC[C@@]4(c5cc([C@@]6(C(=O)OC)CC7CC(C(C)(F)F)CN(Cc8c6[nH]c6ccccc86)C7)c(OC)cc5N(C)[C@H]4C(O)(C(=O)OC)[C@@H]1OC(C)=O)[C@@H]32 (stereo partly drawn) [batch 503, 20′,20′-difluoro-3′,4′-dihyrovinorelbine L(+)-tartrate] the “increase of the total amount of vinflunine-related impurities” value ([1]; after storage for 6 months at 25° C.) was 197%, the “% impurity relative to 100% of active principle (total vinflunine-related impurities)” value ([1]; t0) was 1.17% and the “% impurity relative to 100% of active principle (total vinflunine-related impurities)” value ([1]; t3 months, storage at 25° C.) was 2.75%. For the same compound, the “% impurity relative to 100% of active principle (total vinflunine-related impurities)” value ([1]; t6 months, storage at 25° C.) was 3.48%.

CC[C@]12C=CCN3CC[C@@]4(c5cc([C@@]6(C(=O)OC)CC7CC(C(C)(F)F)CN(Cc8c6[nH]c6ccccc86)C7)c(OC)cc5N(C)[C@H]4C(O)(C(=O)OC)[C@@H]1OC(C)=O)[C@@H]32 (stereo partly drawn) [vinflunine, 20′,20′-difluoro-3′,4′-dihydrovinorelbine] showed a solubility (Solubility) of 290 to 330 mg/mL (≈ 355 to 404 mM).

For CCC1=C[C@@H]2CN(C1)Cc1c([nH]c3ccccc13)[C@@](C(=O)OC)(c1cc3c(cc1OC)N(C)[C@H]1[C@@](O)(C(=O)OC)[C@H](OC(C)=O)[C@]4(CC)C=CCN5CC[C@]31[C@@H]54)C2 [vinorelbine], the solubility (Solubility) was 1000 mg/mL (≈ 1280 mM).
